Results taken from patent US20210393636A1, “TREATMENT OF CNS AND DEVELOPMENTAL DISORDERS USING HIGH DOSE 5-FORMYL-(6S)-TETRAHYDROFOLATE” (priority 2019, published 2021).

What was measured:
[1] = 25 mg liquid elixir, oral; cited from earlier work
[2] = Tissue distribution of folates 24 h after oral administration of folate forms (Example 2); format: in vivo, rats; conditions: for Total 5-MTHF + PGA in Brain: derived from cortex and cerebellum
Procedure: (§1) This study evaluated the difference in folate absorption in non-pregnant rats, pregnant rats, pregnant rats injected with a control antibody, and pregnant rats injected with antibody to the folate receptor alpha. Eight (8) rats were assigned to each group for a total of thirty-two (32) rats. Two rats within each group were administered a single oral dose of PGA, 5-methyl-(6S)-THF, folinic acid or 5-formyl-(6S)-THF as a liquid solution and sacrificed at 24-hours to evaluate folate absorption patterns. The total amount of each form of folate administered to each rat was 4 mg/kg.
Additional analyses were performed in various tissues of the pregnant and non-pregnant rats. For tissues other than serum, each tissue was collected, weighed and stored at −20 C. For the folate assay each tissue was suspended in 3 volumes of phosphate buffer containing 2% ascorbic acid pH 7.4 and homogenized using a polytron probe. An aliquot of this homogenate was diluted 10 fold in PO4 buffer PH 5.5 containing 0.2% ascorbic acid, in a glass tube, sealed and placed in a boiling water bath for 10 min. The tube was cooled to room temperature, precipitate removed by centrifugation and the clear supernatant assayed for folate. Brain concentrations were derived from cortex and cerebellum.

[3] = parenteral 5 mg twice weekly or oral 0.5-20 mg/kg/day; cited from earlier work
in vivo = experiment: in vivo
Procedure: For this study, 4 mg/kg folate was administered as a single dose to 250-300 g male Wistar rats. […] For each form of folate 4 time points of 30 min, 1 h, 2 h and 4 h were evaluated. For each time point 2 rats were used. The folate form dissolved in 0.5 ml buffered saline was administered orally using a blunt needle attached to a 1 ml syringe. The rats were euthanized by CO2 inhalation.
Blood was drawn cardiac puncture, allowed to clot for 30 min, serum separated, diluted in equal volume of 4% ascorbate pH 7.2 and kept frozen at −20 C. Folate forms in the serum was determined by HPLC and the peaks were quantified by comparing to known standards as described below.
Folate standards (5-MTHF, FA, THF and Formyl-THF) and 13C-labeled stable isotope internal standards (13C5-5-MTHF, 13C5-FA and 13C-Formyl-THF) were obtained from Schircks Laboratories (Switzerland). Formic acid, ascorbic acid and dithiothreitol (DTT) were obtained from Fluka and Optima LC-MS grade methanol from Fisher Scientific. Stock standards for each folate metabolite and internal standards were prepared as 1 mmol/L solutions in water containing 2 mg/mL ascorbic acid and stored at −80° C. Microtiter plates used for were purchased from NUNC.
Liquid chromatography electrospray ionization mass spectrometry (LC-ESI-MS/MS) analysis of plasma 5-MTHF, FA, THF, Formyl-THF was performed on a Sciex 5500QTRAP mass spectrometer (Foster City, Calif., USA) coupled with a Shimadzu ultra-high pressure Nexera chromatograph system (Kyoto, Japan). The MS/MS experiments were performed under positive electrospray ionization (+ESI) with multiple-reaction monitoring (MRM) using a Turbolon Spray electrospray source operating at a voltage of 5.5 kV and desolvation temperature of 500° C. The calibration curve was prepared in water containing 2 mg/mL ascorbic acid over a range of 12.5-400 nmol/L for each folate analyte.
Sample preparation involved combining 50 µl of blank, standard, control or sample with 10μ1 62.5 mM dithiothreitol, 20 mg/ml ascorbic acid and 2.5 μM 13C5-5-MTHF, 13C5-FA, 13C-Formyl-THF in 1.5 mL Eppendorf tubes, mixed by vortex and incubated for 10 minutes at room temperature in the dark. Next, samples were deproteinized with 5 volumes of methanol containing 2 mg/ml of ascorbic acid and vortexed and centrifuged at 14800 rpm for 10 minutes. Supernatant was loaded in a 96-well microtiter plate for analysis. The samples were analyzed following injection of 10 μL of extract on a Synergi Hydro 4μ 150×3 mm with a 4×2 mm SecurityGuard column (Phenomenex, Calif., USA) maintained at 40° C. (Phenomenex) and eluted in a gradient with buffer A (100% water with 0.1% formic acid) and buffer B (100% Methanol with 0.1% formic acid). The flow rate was 0.5 mL/min, with a gradient over a total run time of 6 min: 0.0-2.0 min, 0-100% B; 2.5 min, 100% B; 2.6-6.0 min, 0% B.
Total analytical analysis, including column re-equilibration, was 6 minutes. Eluent flow from the column was diverted to waste at the beginning and end of each run and was only directed to the source for the period from 1.5-3.5 minutes. The LC-MS/MS data was acquired and processed using Analyst 1.5.2 software (Sciex).
Values reported include both D- and L-forms.

[4] = Tissue distribution of folates 24 h after oral administration of folate forms to rat pups, with and without FR Ab (Example 3); format: in vivo; conditions: for Folate (mean), Cerebellum / Folate (mean), Cerebrum / Folate (mean), Kidney / Folate (mean), Liver: PND 21 rat pups, 4 mg/kg oral, 24 h
Procedure: To determine tissue distribution of orally administered folate forms in young rat pups and study the effect of folate receptor antibodies on this distribution. PND 21 rat pups weighing about 50 g were administered folate forms orally at a dose of 4 mg/kg. Animals were euthanized after 24 h and tissues collected for analyzing total methylfolate in each tissue to provide a measure of normal distribution.

[5] = Total folates in serum 24 h after oral administration of folate forms (Example 2); format: in vivo, rats; design: Total Folates in Serum (total 5-MTHF D- and L- plus folic acid): unit not given here; conditions: 4 mg/kg oral, 24 h
Procedure: as §1
Serum was withdrawn immediately before the rat was sacrificed. For extraction of folate from serum, an aliquot of the serum was diluted in 3 volumes of phosphate buffer pH 5.5, placed in a boiling water bath for 10 min, cooled, the protein precipitate separated by centrifugation and the clear supernatant was assayed for folate concentration.

[6] = male, Wistar, rat, in vivo, po, 4 mg/kg
[7] = male, Wistar, rat, in vivo, po, 4 mg/kg, 0.5 h
[8] = male, Wistar, rat, in vivo, po, 4 mg/kg, 1 h
[9] = male, Wistar, rat, in vivo, po, 4 mg/kg, 2 h
[10] = male, Wistar, rat, in vivo, po, 4 mg/kg, 4 h
[11] = non-pregnant rats, without antibody, 4 mg/kg oral, 24 h
[12] = pregnant rats, + Control IgG, 4 mg/kg oral, 24 h
[13] = pregnant rats, + FRAb, 4 mg/kg oral, 24 h
[14] = pregnant rats, w/o IgG, 4 mg/kg oral, 24 h
[15] = serum, 4 mg/kg single oral dose, 0.5 hr
[16] = serum, 4 mg/kg single oral dose, 1 hr
[17] = serum, 4 mg/kg single oral dose, 2 hr
[18] = serum, 4 mg/kg single oral dose, 4 hr

Nc1nc2c(c(=O)[nH]1)N(C=O)C(CNc1ccc(C(=O)N[C@@H](CCC(=O)O)C(=O)O)cc1)CN2 (stereo partly drawn) [Folinic acid, 5-formyl-tetrahydrofolate]
AUC0-24h, 5-Formyl-THF (Strep. faecalis activity) [1]: 0.135 ± 0.08 µg·h/mL | AUC0-24h, 5-Methyl-THF (arithmetic difference) [1]: 1.929 ± 0.542 µg·h/mL | AUC0-24h, Total folates (l-casei activity) [1]: 2.063 ± 0.587 µg·h/mL | AUC0-inf, 5-Formyl-THF (Strep. faecalis activity) [1]: 0.14 ± 0.081 µg·h/mL | AUC0-inf, 5-Methyl-THF (arithmetic difference) [1]: 2.012 ± 0.567 µg·h/mL | AUC0-inf, Total folates (l-casei activity) [1]: 2.149 ± 0.612 µg·h/mL | Cmax, 5-Formyl-THF (Strep. faecalis activity) [1]: 0.051 ± 0.05 µg/mL | Cmax, 5-Methyl-THF (arithmetic difference) [1]: 0.367 ± 0.087 µg/mL | Cmax, Total folates (l-casei activity) [1]: 0.393 ± 0.096 µg/mL | t1/2, 5-Formyl-THF (Strep. faecalis activity) [1]: 9.5 ± 4.6 h | t1/2, 5-Methyl-THF (arithmetic difference) [1]: 6.0 ± 1.9 h | t1/2, Total folates (l-casei activity) [1]: 6.0 ± 1.9 h | tmax, 5-Formyl-THF (Strep. faecalis activity) [1]: 1.22 ± 0.583 h | tmax, 5-Methyl-THF (arithmetic difference) [1]: 2.37 ± 0.483 h | tmax, Total folates (l-casei activity) [1]: 2.33 ± 0.533 h | tissue uptake of the unnatural D-isomer in ovary, brain, cerebellum and cortex ([2]; non-pregnant rats without folate receptor antibody): significant | tolerability [3]: tolerated | concentration at 0.5 h (in vivo; [6]): 0.0801 µg/mL | concentration at 1 h (in vivo; [6]): 0.0559 µg/mL | concentration at 2 h (in vivo; [6]): 0.0275 µg/mL | concentration at 4 h (in vivo; [6]): 0.0217 µg/mL | 5-MTHF (in vivo; [7]): 109.7 ng/mL | THF (in vivo; [7]): 5.5 ng/mL | Total Uptake (in vivo; [7]): 195.3 ng/mL | 5-MTHF (in vivo; [8]): 115.7 ng/mL | THF (in vivo; [8]): 5.9 ng/mL | Total Uptake (in vivo; [8]): 177.4 ng/mL | 5-MTHF (in vivo; [9]): 103.3 ng/mL | THF (in vivo; [9]): 5.1 ng/mL | Total Uptake (in vivo; [9]): 135.9 ng/mL | 5-MTHF (in vivo; [10]): 120.7 ng/mL | THF (in vivo; [10]): 7.2 ng/mL | Total Uptake (in vivo; [10]): 149.6 ng/mL | THF concentration relative to an equal dose of 5-formyl-6S-THF (in vivo; rat, in vivo, po, 4 mg/kg): less than one fifth | change of folates in the brain on antibody administration ([4]; antibody-treated pups vs pups without antibody): an increase in folates in the brain is observed

CN1c2c(nc(N)[nH]c2=O)NC[C@@H]1CNc1ccc(C(=O)N[C@@H](CCC(=O)O)C(=O)O)cc1 [5-methyl-(6S)-THF, 5-methyl-(6S)-tetrahydrofolate]
Total Folates in Serum (total 5-MTHF D- and L- plus folic acid) ([5]; Non-pregnant rats): 60.0 | Total Folates in Serum (total 5-MTHF D- and L- plus folic acid) ([5]; pregnant rats, Control Ab + Form): 143.3 | Total Folates in Serum (total 5-MTHF D- and L- plus folic acid) ([5]; pregnant rats, FRAb + Form): 190.9 | Total Folates in Serum (total 5-MTHF D- and L- plus folic acid) ([5]; pregnant rats, Form Only): 85.5 | Total 5-MTHF + PGA in Cerebellum [2, 11]: 1.9 | Total 5-MTHF + PGA in Cortex [2, 11]: 1.9 | Total 5-MTHF + PGA in Kidney [2, 11]: 36.4 | Total 5-MTHF + PGA in Liver [2, 11]: 75.4 | Total 5-MTHF + PGA in Ovary [2, 11]: 7.2 | Total 5-MTHF + PGA in Brain [2, 11]: 1.9 | Total 5-MTHF + PGA in Embryo [2, 12]: 2.0 ng/mg | Total 5-MTHF + PGA in Kidney [2, 12]: 20.3 ng/mg | Total 5-MTHF + PGA in Liver [2, 12]: 148.5 ng/mg | Total 5-MTHF + PGA in Ovary [2, 12]: 14.9 ng/mg | Total 5-MTHF + PGA in Placenta [2, 12]: 2.3 ng/mg | Total 5-MTHF + PGA in Brain [2, 12]: 3.2 ng/mg | Total 5-MTHF + PGA in Embryo [2, 13]: 1.9 ng/mg | Total 5-MTHF + PGA in Kidney [2, 13]: 64.9 ng/mg | Total 5-MTHF + PGA in Liver [2, 13]: 148.0 ng/mg | Total 5-MTHF + PGA in Ovary [2, 13]: 27.0 ng/mg | Total 5-MTHF + PGA in Placenta [2, 13]: 2.1 ng/mg | Total 5-MTHF + PGA in Brain [2, 13]: 3.7 ng/mg | Total 5-MTHF + PGA in Embryo [2, 14]: 4.6 ng/mg | Total 5-MTHF + PGA in Kidney [2, 14]: 25.5 ng/mg | Total 5-MTHF + PGA in Liver [2, 14]: 58.6 ng/mg | Total 5-MTHF + PGA in Ovary [2, 14]: 6.6 ng/mg | Total 5-MTHF + PGA in Placenta [2, 14]: 6.4 ng/mg | Total 5-MTHF + PGA in Brain [2, 14]: 2.4 ng/mg | THF (in vivo; [15]): 4.4 ng/mL | Total Uptake (in vivo; [15]): 188.5 ng/mL | 5-MTHF (in vivo; serum, 4 mg/kg single oral dose, 0.5 hr, D- and L-forms): 184.1 ng/mL | THF (in vivo; [16]): 9.0 ng/mL | Total Uptake (in vivo; [16]): 223.8 ng/mL | 5-MTHF (in vivo; serum, 4 mg/kg single oral dose, 1 hr, D- and L-forms): 214.8 ng/mL | THF (in vivo; [17]): 8.7 ng/mL | Total Uptake (in vivo; [17]): 258.4 ng/mL | 5-MTHF (in vivo; serum, 4 mg/kg single oral dose, 2 hr, D- and L-forms): 249.7 ng/mL | 5-FoTHF (in vivo; [18]): 5.1 ng/mL | THF (in vivo; [18]): 19.6 ng/mL | Total Uptake (in vivo; [18]): 216.2 ng/mL | 5-MTHF (in vivo; serum, 4 mg/kg single oral dose, 4 hr, D- and L-forms): 191.4 ng/mL | Folate (mean), Cerebellum ([4]; + FRAb (100 ug IP 24 h prior)): 60.7 ng/mg | Folate (mean), Cerebrum ([4]; + FRAb (100 ug IP 24 h prior)): 3.8 ng/mg | Folate (mean), Kidney ([4]; + FRAb (100 ug IP 24 h prior)): 116.4 ng/mg | Folate (mean), Liver ([4]; + FRAb (100 ug IP 24 h prior)): 250.34 ng/mg | Folate (mean), Cerebellum ([4]; no FRAb): 26.1 ng/mg | Folate (mean), Cerebrum ([4]; no FRAb): 4.3 ng/mg | Folate (mean), Kidney ([4]; no FRAb): 86.6 ng/mg | Folate (mean), Liver ([4]; no FRAb): 158.5 ng/mg
